Data: US6001359A, “Diagnosis of colon carcinoma using monoclonal antibodies to human influx peptide transporter” (Eli Lilly and Company, priority 1997, dated 1999)

Key:
[1] = system: CHO-K1 cells; assay: [14C]cephalexin uptake by control CHO-K1 cells (plasmid pRc/RSV); assay type: cell-based, Chinese hamster
Experimental: (§1) The samples were incubated at room temperature for 20 minutes.

[2] = biological target: T1, influx peptide transporter (Homo sapiens, UniProt Q12864); assay: [14C]cephalexin uptake by CHO-K1 transfectant Clone 9 (plasmid pPSJ179); assay type: cell-based
T1 construct: about 120 kDa antigen of MAb PTC13G6
T1 sequence (Q12864 23-832): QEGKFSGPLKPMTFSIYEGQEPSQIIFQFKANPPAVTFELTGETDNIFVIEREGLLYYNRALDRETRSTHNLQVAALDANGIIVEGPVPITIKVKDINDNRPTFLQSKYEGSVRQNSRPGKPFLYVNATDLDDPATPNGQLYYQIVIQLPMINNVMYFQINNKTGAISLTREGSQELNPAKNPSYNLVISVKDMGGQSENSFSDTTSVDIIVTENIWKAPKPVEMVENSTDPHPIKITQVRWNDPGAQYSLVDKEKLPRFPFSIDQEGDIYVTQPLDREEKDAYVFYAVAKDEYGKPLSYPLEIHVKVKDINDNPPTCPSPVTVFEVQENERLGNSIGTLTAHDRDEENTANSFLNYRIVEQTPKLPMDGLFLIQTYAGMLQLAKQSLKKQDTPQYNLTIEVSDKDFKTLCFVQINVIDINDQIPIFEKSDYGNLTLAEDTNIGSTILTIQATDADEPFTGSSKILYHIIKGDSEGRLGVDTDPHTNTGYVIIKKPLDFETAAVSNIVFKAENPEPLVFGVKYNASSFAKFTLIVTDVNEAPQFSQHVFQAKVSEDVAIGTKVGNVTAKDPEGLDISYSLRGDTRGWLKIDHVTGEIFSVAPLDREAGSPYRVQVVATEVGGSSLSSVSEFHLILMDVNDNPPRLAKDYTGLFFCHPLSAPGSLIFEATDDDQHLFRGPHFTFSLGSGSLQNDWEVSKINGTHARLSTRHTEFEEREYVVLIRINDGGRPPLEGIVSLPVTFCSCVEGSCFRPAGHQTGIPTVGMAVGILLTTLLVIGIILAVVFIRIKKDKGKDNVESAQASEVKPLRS
Experimental: as §1

[14C]-Cephalexin Uptake in presence of bestatin ([2]; 1 mM [14C]cephalexin + 15 mM bestatin): 0.42 ± 0.08 nmol/mg total cell protein
effect on uptake of 1 mM cephalexin by the transfectant ([2]; 15 mM bestatin or 25 mM unlabelled cephalexin): inhibited
Compound: CC(C)C[C@H](NC(=O)[C@@H](O)[C@H](N)Cc1ccccc1)C(=O)O [bestatin]
[14C]-Cephalexin Uptake in presence of bestatin ([1]; Control cells, 1 mM [14C]cephalexin + 15 mM bestatin): 0.38 ± 0.08 nmol/mg total cell protein
effect on transport of 1 mM [14C]cephalexin by the control cells ([1]; control cells, bestatin or cephalexin): not inhibited significantly
drug uptake on coincubation, compared with control cells ([2]; coincubation with 1 mM [14C]cephalexin): decreased drug uptake in the representative transfectant (Clone 9) to the level of the control cells
